Data published in PMC11280325, “Design, Synthesis, and Characterization of Novel Thiazolidine-2,4-Dione-Acridine Hybrids as Antitumor Agents” (Molecules, 2024).
Counter-ions that a name gives are not always drawn.

Experiments:
A549 = test: MTT assay, A549; assay type: cell-based, human; conditions: lung adenocarcinoma, 48 h incubation
Method: (§1) The human cancer cell lines HeLa (cervical adenocarcinoma), HCT116 (colorectal adenocarcinoma), A2780 (human ovarian adenocarcinoma), A2780cis (human ovarian adenocarcinoma cisplatin-resistant), Jurkat (acute T-lymphoblastic leukemia), and Hep G2 (hepatocellular carcinoma) were cultured in an RPMI 1640 growth medium (Biosera, Kansas City, MO, USA). The cancer cell lines MDA-MB-231 (triple-negative breast adenocarcinoma), A2058 (human melanoma), U87 (human glioblastoma), PATU 8902 (pancreas adenocarcinoma), and A549 (human lung adenocarcinoma) were cultured in a DMEM medium (Biosera, Kansas City, MO, USA). The media were supplemented with 10% fetal bovine serum (FBS) (Invitrogen, Carlsbad, CA, USA) and 1× HyClone™ Antibiotic/Antimycotic Solution (GE Healthcare, Piscataway, NJ, USA).
(§2) To evaluate the IC50 (half-maximal inhibitory concentration) and confirm the antiproliferative activity of the tested substances, we employed the colorimetric MTT assay (3-(4,5-dimethylthiazol-2-yl)-2,5-diphenyltetrazolium bromide) (Sigma-Aldrich Chemie, Steinheim, Germany). The cell lines were seeded in 96-well plates at a density of 5 × 10^3 to 10 × 10^3 cells per well. After 24 h, the tested substances, dissolved in the cultivation medium, were added to the cells at final concentrations of 5, 10, 20, and 50 µmol/L. The cells were then incubated for 48 h under standard cultivation conditions. Following the incubation period, MTT was added to each well. The MTT was metabolized by the cells into insoluble formazan crystals, which were subsequently dissolved by adding 100 µL of 10% SDS. After another 24 h, the absorbance was measured at a wavelength of 540 nm using the automated Cytation™ 3 Cell Imaging Multi-Mode Reader (Biotek, Winooski, VT, USA). The experiments were performed in at least three independent repetitions. IC50 values were calculated using a nonlinear regression method.

MCF-10A = test: MTT assay, MCF-10A non-cancerous cells; assay type: cell-based, human; conditions: non-cancerous epithelial breast cells, 48 h incubation
Method: (§3) The non-cancerous cell line MCF-10A (human epithelial breast cells) was cultured in a DMEM F12 medium supplemented with 10% FBS (Invitrogen, Carlsbad, CA, USA), 1× HyClone™ Antibiotic/Antimycotic Solution (GE Healthcare, Piscataway, NJ, USA), insulin, hEGF, and hydrocortisone. The BJ-5ta cells (human dermal fibroblasts) were cultured in a DMEM-M199 4:1 medium mixture, supplemented with 10% FBS and hygromycin B (0.01 mg/mL). The cells were maintained under standard conditions with an atmosphere containing 5% CO2 at 37 °C. Cell viability, estimated by trypan blue exclusion, was consistently greater than 95% before each experiment.
as §2

PATU = test: MTT assay, PATU 8902; assay type: cell-based, human; conditions: pancreas adenocarcinoma, 48 h incubation
Method: as §1, §2

A2780 = test: MTT assay, A2780; assay type: cell-based, human; conditions: ovarian adenocarcinoma, 48 h incubation
Method: as §1, §2

Hep G2 = test: MTT assay, Hep G2; assay type: cell-based, human; conditions: hepatocellular carcinoma, 48 h incubation
Method: as §1, §2

HCT116 = test: MTT assay, HCT116; assay type: cell-based, human; conditions: colorectal adenocarcinoma, 48 h incubation
Method: as §1, §2

A2058 = test: MTT assay, A2058; assay type: cell-based; conditions: human melanoma, 48 h incubation
Method: as §1, §2

Bj-5ta = test: MTT assay, BJ-5ta non-cancerous fibroblasts; assay type: cell-based, human; conditions: non-cancerous dermal fibroblasts, 48 h incubation
Method: as §3, §2

HeLa = test: MTT assay, HeLa; assay type: cell-based, human; conditions: cervical adenocarcinoma, 48 h incubation
Method: as §1, §2

Row | IC50 (A549) | IC50 (A2780) | IC50 (HCT116) | IC50 (HeLa) | Structure (SMILES) | IC50 (MCF-10A) | IC50 (PATU) | IC50 (Hep G2) | IC50 (A2058) | IC50 (Bj-5ta)
1 | > 50 µM | 15 ± 1.4 µM | 27.3 ± 3.75 µM | 11.9 ± 7.4 µM | COc1cc(NC(=O)COc2ccc(/C=C3\SC(=O)N(Cc4c5ccccc5nc5ccccc45)C3=O)cc2OC)cc(OC)c1 [12b·2HCl, 2-(4-{[(5Z)-3-[(Acridin-9-yl)methyl]-2,4-dioxo-1,3-thiazolidin-5-ylidene]methyl}-2-methoxyphenoxy)-N-(3,5-dimethoxyphenyl)acetamide dihydrochloride] | 12.4 ± 1.9 µM | > 50 µM | > 50 µM | > 50 µM | 29.6 ± 4.4 µM
2 | > 50 µM | > 50 µM | 5.4 ± 2.4 µM | 20.2 ± 5.4 µM | COc1cc(/C=C2\SC(=O)N(Cc3c4ccccc4nc4ccccc34)C2=O)ccc1OCC(=O)Nc1cc(OC)c(OC)c(OC)c1 [12c·2HCl, 2-(4-{[(5Z)-3-[(Acridin-9-yl)methyl]-2,4-dioxo-1,3-thiazolidin-5-ylidene]methyl}-2-methoxyphenoxy)-N-(3,4,5-trimethoxyphenyl)acetamide dihydrochloride] | > 50 µM | > 50 µM | > 50 µM | > 50 µM | > 50 µM
3 | > 50 µM | > 50 µM | 29.2 ± 3.7 µM | 13.2 ± 4.9 µM | COc1cc(/C=C2\SC(=O)N(Cc3c4ccccc4nc4ccccc34)C2=O)ccc1OCC(=O)Nc1ccccc1C(F)(F)F [12e·2HCl, 2-(4-{[(5Z)-3-[(Acridin-9-yl)methyl]-2,4-dioxo-1,3-thiazolidin-5-ylidene]methyl}-2-methoxyphenoxy)-N-[2-(trifluoromethyl)phenyl]acetamide dihydrochloride] | > 50 µM | > 50 µM | > 50 µM | > 50 µM | > 50 µM
4 | > 50 µM | > 50 µM | 4.98 ± 2.9 µM | 19.4 ± 6.48 µM | COc1cc(/C=C2\SC(=O)N(Cc3c4ccccc4nc4ccccc34)C2=O)ccc1OCC(=O)Nc1cccc(C(F)(F)F)c1 [12f·2HCl, 2-(4-{[(5Z)-3-[(Acridin-9-yl)methyl]-2,4-dioxo-1,3-thiazolidin-5-ylidene]methyl}-2-methoxyphenoxy)-N-[3-(trifluoromethyl)phenyl]acetamide dihydrochloride] | > 50 µM | > 50 µM | > 50 µM | > 50 µM | > 50 µM
5 | 38.2 ± 7.35 µM |  | 14.3 ± 3.2 µM | 12.3 ± 4.9 µM | COc1cc(/C=C2\SC(=O)N(Cc3cccc4cc5ccccc5nc34)C2=O)ccc1OCC(=O)Nc1cccc(C(F)(F)F)c1 [13f·HCl, 2-(4-{[(5Z)-3-[(Acridin-4-yl)methyl]-2,4-dioxo-1,3-thiazolidin-5-ylidene]methyl}-2-methoxyphenoxy)-N-[3-(trifluoromethyl)phenyl]acetamide hydrochloride] |  | 43.7 ± 5.8 µM | > 50 µM | > 50 µM | > 50 µM
6 | > 50 µM |  | > 50 µM | 34.7 ± 6.4 µM | COc1cc(/C=C2\SC(=O)N(Cc3cccc4cc5ccccc5nc34)C2=O)ccc1OCC(=O)Nc1cc(C(F)(F)F)cc(C(F)(F)F)c1 [13g·HCl, 2-(4-{[(5Z)-3-[(Acridin-4-yl)methyl]-2,4-dioxo-1,3-thiazolidin-5-ylidene]methyl}-2-methoxyphenoxy)-N-[3,5-bis(trifluoromethyl)phenyl]acetamide hydrochloride] |  | > 50 µM | > 50 µM | > 50 µM | > 50 µM

Second part, the molecule before the results:

Row | Structure (SMILES) | IC50 (A549) | IC50 (A2780) | IC50 (HCT116) | IC50 (HeLa) | IC50 (MCF-10A) | IC50 (PATU) | IC50 (Hep G2) | IC50 (A2058) | IC50 (Bj-5ta)
7 | O=C(COc1ccc(/C=C2\SC(=O)N(Cc3c4ccccc4nc4ccccc34)C2=O)cc1)Nc1ccccc1 [7a·2HCl, 2-(4-{[(5Z)-3-[(Acridin-9-yl)methyl]-2,4-dioxo-1,3-thiazolidin-5-ylidene]methyl}phenoxy)-N-phenylacetamide dihydrochloride] | 17 ± 1.35 µM | > 50 µM | 13.1 ± 2.3 µM | 17.7 ± 4.04 µM | 17.6 ± 4.3 µM | > 50 µM | > 50 µM | > 50 µM | 29.9 ± 7.2 µM
8 | COc1cc(NC(=O)COc2ccc(/C=C3\SC(=O)N(Cc4c5ccccc5nc5ccccc45)C3=O)cc2)cc(OC)c1 [7b·2HCl, 2-(4-{[(5Z)-3-[(Acridin-9-yl)methyl]-2,4-dioxo-1,3-thiazolidin-5-ylidene]methyl}phenoxy)-N-(3,5-dimethoxyphenyl)acetamide dihydrochloride] | 21.9 ± 3.35 µM | > 50 µM | 17.4 ± 1.74 µM | 6.11 ± 1.2 µM | 11.3 ± 2.05 µM | > 50 µM | > 50 µM | > 50 µM | 34.5 ± 5.5 µM
9 | COc1cc(NC(=O)COc2ccc(/C=C3\SC(=O)N(Cc4c5ccccc5nc5ccccc45)C3=O)cc2)cc(OC)c1OC [7c·2HCl, 2-(4-{[(5Z)-3-[(Acridin-9-yl)methyl]-2,4-dioxo-1,3-thiazolidin-5-ylidene]methyl}phenoxy)-N-(3,4,5-trimethoxyphenyl)acetamide dihydrochloride] | > 50 µM | > 50 µM | 16.9 ± 1.75 µM | 21.4 ± 5.8 µM | > 50 µM | > 50 µM | > 50 µM | > 50 µM | > 50 µM
10 | O=C(COc1ccc(/C=C2\SC(=O)N(Cc3c4ccccc4nc4ccccc34)C2=O)cc1)Nc1ccc([N+](=O)[O-])cc1 [7d·2HCl, 2-(4-{[(5Z)-3-[(Acridin-9-yl)methyl]-2,4-dioxo-1,3-thiazolidin-5-ylidene]methyl}phenoxy)-N-(4-nitrophenyl)acetamide dihydrochloride] | > 50 µM | > 50 µM | 8.6 ± 2.9 µM | 4.55 ± 0.35 µM | > 50 µM | > 50 µM | > 50 µM | > 50 µM | > 50 µM
11 | O=C(COc1ccc(/C=C2\SC(=O)N(Cc3c4ccccc4nc4ccccc34)C2=O)cc1)Nc1cccc(C(F)(F)F)c1 [7f·2HCl, 2-(4-{[(5Z)-3-[(Acridin-9-yl)methyl]-2,4-dioxo-1,3-thiazolidin-5-ylidene]methyl}phenoxy)-N-[3-(trifluoromethyl)phenyl]acetamide dihydrochloride] | 34 ± 6.05 µM | > 50 µM | 15.2 ± 3.4 µM | 6.9 ± 0.2 µM | 7.7 ± 1.5 µM | 9.82 ± 1.92 µM | 27.4 ± 5.9 µM | > 50 µM | 39.5 ± 6.5 µM
12 | O=C(COc1ccc(/C=C2\SC(=O)N(Cc3c4ccccc4nc4ccccc34)C2=O)cc1)Nc1cc(C(F)(F)F)cc(C(F)(F)F)c1 [7g·2HCl, 2-(4-{[(5Z)-3-[(Acridin-9-yl)methyl]-2,4-dioxo-1,3-thiazolidin-5-ylidene]methyl}phenoxy)-N-[3,5-bis(trifluoromethyl)phenyl]acetamide dihydrochloride] | 32.4 ± 7.6 µM | > 50 µM | > 50 µM | 19.3 ± 4.6 µM | 13.2 ± 3.2 µM | > 50 µM | > 50 µM | > 50 µM | > 50 µM
13 | COc1cc(NC(=O)COc2ccc(/C=C3\SC(=O)N(Cc4cccc5cc6ccccc6nc45)C3=O)cc2)cc(OC)c1 [8b·HCl, 2-(4-{[(5Z)-3-[(Acridin-4-yl)methyl]-2,4-dioxo-1,3-thiazolidin-5-ylidene]methyl}phenoxy)-N-(3,5-dimethoxyphenyl)acetamide hydrochloride] | > 50 µM | > 50 µM | 32.4 ± 6.3 µM | 47.9 ± 1.4 µM | > 50 µM | > 50 µM | > 50 µM | > 50 µM | > 50 µM
